How the values were obtained:
Human κ-Opioid (KOP) = target: T1, Human κ-Opioid (KOP) (Homo sapiens, UniProt P41145); test: Radioligand binding, human κ-opioid (KOP) membranes, filtration, [3H]-Diprenorphine; settings: compound at 10 μM; for A2 radioligand binding inhibition: human κ-opioid (KOP) membranes; for A2: inhibition of radioligand binding, human κ-opioid (KOP): [3H]-Diprenorphine
T1 construct: purchased Perkin Elmer Biosignal
Summary of the method: (§1)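 Percent inhibition of radioligand binding measured on recombinant human membranes: NK1 with [125I]-Substance P, KOP with [3H]-Diprenorphine. Incubation 1 h at room temperature, then harvest onto 0.3% PEI-soaked filters, cold Tris-HCl pH 7.4 washes and scintillation counting; non-specific binding from reference ligand wells.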

[1] = target: T2, Human melanin-concentrating hormone (MCH1) (Homo sapiens, UniProt Q99705); test: Radioligand binding, human melanin-concentrating hormone MCH1 membranes, FlashPlate, [125I]-S36057; settings: compound at 10 μM; for A6 radioligand binding inhibition: human MCH1 membranes; for A6: inhibition of radioligand binding, human melanin-concentrating hormone (MCH1): [125I]-S36057
T2 construct: purchased Perkin Elmer Biosignal
T2 sequence (Q99705 whole entry): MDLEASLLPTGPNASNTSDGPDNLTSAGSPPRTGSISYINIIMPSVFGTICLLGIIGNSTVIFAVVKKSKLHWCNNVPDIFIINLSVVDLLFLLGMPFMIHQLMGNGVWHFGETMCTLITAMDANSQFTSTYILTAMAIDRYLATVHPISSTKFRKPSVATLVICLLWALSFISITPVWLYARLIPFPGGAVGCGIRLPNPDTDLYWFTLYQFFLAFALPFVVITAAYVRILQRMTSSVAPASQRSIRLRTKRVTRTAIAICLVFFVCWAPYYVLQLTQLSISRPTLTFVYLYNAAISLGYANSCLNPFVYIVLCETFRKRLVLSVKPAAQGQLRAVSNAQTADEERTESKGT
Summary of the method: (§2)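 Cloned human receptor membranes were coated onto FlashPlate wells and incubated with radioligand and compound (added from a 0.5 mM DMSO daughter plate) for 1 hour at room temperature in the dark. Scintillation counting gave percent inhibition, with DMSO defining total and reference ligand defining non-specific binding.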

Human Melanocortin (MC3) = target: T3, Human Melanocortin (MC3) (Homo sapiens, UniProt P41968); test: Radioligand binding, human melanocortin MC3 membranes, FlashPlate, [125I]-NDP-αMSH; settings: compound at 10 μM; for A3 radioligand binding inhibition: human melanocortin MC3 membranes; for A3: inhibition of radioligand binding, human melanocortin (MC3): [125I]-NDP-αMSH
T3 construct: purchased Perkin Elmer Biosignal
T3 sequence (P41968 whole entry): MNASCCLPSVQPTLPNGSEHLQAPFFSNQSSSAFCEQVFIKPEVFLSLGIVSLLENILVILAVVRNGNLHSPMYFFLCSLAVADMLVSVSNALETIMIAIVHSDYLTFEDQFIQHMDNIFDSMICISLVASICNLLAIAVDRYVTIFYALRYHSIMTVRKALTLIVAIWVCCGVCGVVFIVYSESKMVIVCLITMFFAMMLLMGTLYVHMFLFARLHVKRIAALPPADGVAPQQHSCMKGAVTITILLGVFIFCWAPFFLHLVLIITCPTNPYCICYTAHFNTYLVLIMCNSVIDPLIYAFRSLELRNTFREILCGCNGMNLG
Summary of the method: as §2

Human melanocortin (MC5) = target: T4, Human melanocortin (MC5) (Homo sapiens, UniProt P33032); test: Radioligand binding, human melanocortin MC5 membranes, FlashPlate, [125I]-NDP-αMSH; settings: compound at 10 μM; for A5 radioligand binding inhibition: human melanocortin MC5 membranes; for A5: inhibition of radioligand binding, human melanocortin (MC5): [125I]-NDP-αMSH
T4 construct: purchased Perkin Elmer Biosignal
T4 sequence (P33032 whole entry): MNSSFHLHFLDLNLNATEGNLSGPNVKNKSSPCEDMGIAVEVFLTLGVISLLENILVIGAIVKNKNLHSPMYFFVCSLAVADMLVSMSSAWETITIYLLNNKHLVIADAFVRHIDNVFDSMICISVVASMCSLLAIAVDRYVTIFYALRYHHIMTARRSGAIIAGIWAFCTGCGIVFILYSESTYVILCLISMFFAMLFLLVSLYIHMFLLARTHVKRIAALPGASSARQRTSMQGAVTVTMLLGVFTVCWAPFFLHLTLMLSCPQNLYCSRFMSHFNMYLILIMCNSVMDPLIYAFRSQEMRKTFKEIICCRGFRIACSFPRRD
Summary of the method: as §2

Human neurokinin (NK1) = target: T5, Human neurokinin (NK1) (Homo sapiens, UniProt P25103); test: Radioligand binding, human neurokinin NK1 membranes, filtration, [125I]-Substance P; settings: compound at 10 μM; for A8 radioligand binding inhibition: human neurokinin NK1 membranes; for A8: inhibition of radioligand binding, human neurokinin (NK1): [125I]-Substance P
T5 construct: purchased Perkin Elmer Biosignal
T5 sequence (P25103 whole entry): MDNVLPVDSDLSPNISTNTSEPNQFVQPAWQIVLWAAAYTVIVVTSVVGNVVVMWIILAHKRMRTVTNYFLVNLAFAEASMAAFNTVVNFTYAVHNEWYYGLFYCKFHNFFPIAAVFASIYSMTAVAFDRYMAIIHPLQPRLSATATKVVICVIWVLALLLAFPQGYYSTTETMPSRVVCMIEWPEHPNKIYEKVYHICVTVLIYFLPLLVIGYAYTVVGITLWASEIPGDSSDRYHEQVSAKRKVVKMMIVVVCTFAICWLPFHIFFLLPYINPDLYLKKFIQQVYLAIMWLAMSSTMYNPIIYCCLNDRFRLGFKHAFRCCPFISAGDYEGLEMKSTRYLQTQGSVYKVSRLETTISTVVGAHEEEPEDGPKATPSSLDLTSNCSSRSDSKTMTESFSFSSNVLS
Summary of the method: as §1

Human μ-opioid (MOP) = target: T6, Human μ-opioid (MOP) (Homo sapiens, UniProt P35372); test: Radioligand binding, human μ-opioid (MOP) membranes, FlashPlate, [3H]-Naloxone; settings: compound at 10 μM; for A7 radioligand binding inhibition: human μ-opioid (MOP) membranes; for A7: inhibition of radioligand binding, human μ-opioid (MOP): [3H]-Naloxone
T6 construct: purchased Perkin Elmer Biosignal
T6 sequence (P35372 whole entry): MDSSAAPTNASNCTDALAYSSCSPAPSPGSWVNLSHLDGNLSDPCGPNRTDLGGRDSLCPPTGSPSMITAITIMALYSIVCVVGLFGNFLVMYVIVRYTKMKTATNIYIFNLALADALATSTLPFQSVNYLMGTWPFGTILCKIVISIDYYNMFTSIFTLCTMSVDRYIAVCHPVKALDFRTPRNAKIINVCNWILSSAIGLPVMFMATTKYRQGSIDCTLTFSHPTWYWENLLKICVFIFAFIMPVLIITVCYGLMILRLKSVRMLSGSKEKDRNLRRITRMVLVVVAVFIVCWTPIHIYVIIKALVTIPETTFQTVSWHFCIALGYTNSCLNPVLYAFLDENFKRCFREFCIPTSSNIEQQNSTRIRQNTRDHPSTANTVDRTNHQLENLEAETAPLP
Summary of the method: as §2

[2] = target: T7, Human neuropeptide Y (NPY-Y1) (Homo sapiens, UniProt P25929); test: Radioligand binding, human neuropeptide Y NPY-Y1 membranes, FlashPlate, [125I]-PYY; settings: compound at 10 μM; for A9 radioligand binding inhibition: human NPY-Y1 membranes; for A9: inhibition of radioligand binding, human neuropeptide Y (NPY-Y1): [125I]-PYY
T7 construct: purchased Perkin Elmer Biosignal
T7 sequence (P25929 1-384): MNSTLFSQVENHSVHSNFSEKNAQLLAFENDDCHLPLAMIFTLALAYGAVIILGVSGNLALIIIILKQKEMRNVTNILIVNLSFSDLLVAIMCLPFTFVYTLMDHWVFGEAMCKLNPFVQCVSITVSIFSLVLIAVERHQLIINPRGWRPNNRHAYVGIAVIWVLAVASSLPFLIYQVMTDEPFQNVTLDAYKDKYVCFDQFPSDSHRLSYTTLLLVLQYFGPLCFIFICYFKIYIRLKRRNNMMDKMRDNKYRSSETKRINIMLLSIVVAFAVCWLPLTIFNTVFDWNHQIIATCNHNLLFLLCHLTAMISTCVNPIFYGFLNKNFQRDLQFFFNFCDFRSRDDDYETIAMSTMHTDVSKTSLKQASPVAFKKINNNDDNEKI
Summary of the method: as §2

Human δ-opioid (DOP) = target: T8, Human δ-opioid (DOP) (Homo sapiens, UniProt P41143); test: Radioligand binding, human δ-opioid (DOP) membranes, FlashPlate, [3H]-Bremazocine; settings: compound at 10 μM; for A1 radioligand binding inhibition: human δ-opioid (DOP) membranes; for A1: inhibition of radioligand binding, human δ-opioid (DOP): [3H]-Bremazocine
T8 construct: purchased Perkin Elmer Biosignal
T8 sequence (P41143 whole entry): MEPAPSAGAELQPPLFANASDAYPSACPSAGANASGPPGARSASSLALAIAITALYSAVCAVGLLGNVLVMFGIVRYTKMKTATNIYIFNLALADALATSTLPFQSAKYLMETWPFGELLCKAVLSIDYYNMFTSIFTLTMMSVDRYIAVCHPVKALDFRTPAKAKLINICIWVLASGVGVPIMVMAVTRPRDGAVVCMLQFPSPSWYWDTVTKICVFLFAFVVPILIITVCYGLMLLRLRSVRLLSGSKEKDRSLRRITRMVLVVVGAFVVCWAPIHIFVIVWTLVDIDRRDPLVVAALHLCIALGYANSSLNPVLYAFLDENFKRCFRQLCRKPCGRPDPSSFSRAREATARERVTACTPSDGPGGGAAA
Summary of the method: as §2

Human Melanocortin (MC4) = target: T9, Human Melanocortin (MC4) (Homo sapiens, UniProt P32245); test: Radioligand binding, human melanocortin MC4 membranes, FlashPlate, [125I]-NDP-αMSH; settings: compound at 10 μM; for A4 radioligand binding inhibition: human melanocortin MC4 membranes; for A4: inhibition of radioligand binding, human melanocortin (MC4): [125I]-NDP-αMSH
T9 construct: purchased Perkin Elmer Biosignal
T9 sequence (P32245 whole entry): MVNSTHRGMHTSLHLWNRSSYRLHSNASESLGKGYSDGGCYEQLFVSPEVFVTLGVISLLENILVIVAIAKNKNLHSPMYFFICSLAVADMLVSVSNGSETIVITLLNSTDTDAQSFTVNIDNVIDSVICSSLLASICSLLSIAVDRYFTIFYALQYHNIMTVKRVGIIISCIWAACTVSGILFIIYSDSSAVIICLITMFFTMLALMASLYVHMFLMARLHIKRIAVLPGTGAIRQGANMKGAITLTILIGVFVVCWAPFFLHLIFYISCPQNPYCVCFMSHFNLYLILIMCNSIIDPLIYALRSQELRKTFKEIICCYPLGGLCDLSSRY
Summary of the method: as §2

Mouse urotensin (mUR2) = target: T10, Mouse urotensin (mUR2) (Mus musculus, UniProt Q8VIH9); test: Radioligand binding, mouse urotensin mUR2 membranes, FlashPlate, [125I]-Urotensin II; settings: compound at 10 μM; for A11 radioligand binding inhibition: mouse urotensin mUR2 membranes; for A11: inhibition of radioligand binding, mouse urotensin (mUR2): [125I]-Urotensin II
T10 construct: purchased Perkin Elmer Biosignal
T10 sequence (Q8VIH9 1-385): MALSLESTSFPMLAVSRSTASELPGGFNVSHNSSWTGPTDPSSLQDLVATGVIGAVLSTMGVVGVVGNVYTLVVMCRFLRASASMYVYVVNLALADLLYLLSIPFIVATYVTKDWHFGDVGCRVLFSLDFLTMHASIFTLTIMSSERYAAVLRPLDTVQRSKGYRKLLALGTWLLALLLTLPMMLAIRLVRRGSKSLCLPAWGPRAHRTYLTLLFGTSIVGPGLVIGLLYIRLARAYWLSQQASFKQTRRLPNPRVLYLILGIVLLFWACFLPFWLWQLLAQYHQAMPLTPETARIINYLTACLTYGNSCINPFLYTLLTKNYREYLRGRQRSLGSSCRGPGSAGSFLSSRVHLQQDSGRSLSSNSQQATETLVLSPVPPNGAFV
Summary of the method: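 Cloned mouse urotensin (mUR2) receptor membranes from Perkin Elmer Biosignal were immobilized in FlashPlate microplates using a proprietary coating. Each well got 19.5 μl buffer, then 0.5 μl of DMSO, reference ligand, or compound. Adding 5 μl of [125I]-Urotensin II, diluted to 5× final concentration in binding buffer, started binding. Plates were sealed with TopSeal-A and incubated 1 hour at room temperature in the dark. Wells were counted for 30 seconds each on a TopCount after a 60-second delay, and percentage inhibition was calculated.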

Human opioid (ORL1) = target: T11, Human opioid (ORL1) (Homo sapiens, UniProt P41146); test: Radioligand binding, human opioid ORL1 membranes, FlashPlate, [125I]-Nociceptin; settings: compound at 10 μM; for A10 radioligand binding inhibition: human ORL1 membranes; for A10: inhibition of radioligand binding, human opioid (ORL1): [125I]-Nociceptin
T11 construct: purchased Perkin Elmer Biosignal
T11 sequence (P41146 whole entry): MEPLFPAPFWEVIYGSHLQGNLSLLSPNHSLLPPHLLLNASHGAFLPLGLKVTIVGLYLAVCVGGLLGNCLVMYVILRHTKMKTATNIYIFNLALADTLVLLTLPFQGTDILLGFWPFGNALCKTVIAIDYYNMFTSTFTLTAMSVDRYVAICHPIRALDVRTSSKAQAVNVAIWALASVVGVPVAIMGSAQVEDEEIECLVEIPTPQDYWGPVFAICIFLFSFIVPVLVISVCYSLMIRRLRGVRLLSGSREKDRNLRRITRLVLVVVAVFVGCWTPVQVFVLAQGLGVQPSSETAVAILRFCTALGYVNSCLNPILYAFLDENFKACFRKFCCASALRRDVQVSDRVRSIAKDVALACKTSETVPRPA
Summary of the method: as §2

T1 sequence (P41145 whole entry): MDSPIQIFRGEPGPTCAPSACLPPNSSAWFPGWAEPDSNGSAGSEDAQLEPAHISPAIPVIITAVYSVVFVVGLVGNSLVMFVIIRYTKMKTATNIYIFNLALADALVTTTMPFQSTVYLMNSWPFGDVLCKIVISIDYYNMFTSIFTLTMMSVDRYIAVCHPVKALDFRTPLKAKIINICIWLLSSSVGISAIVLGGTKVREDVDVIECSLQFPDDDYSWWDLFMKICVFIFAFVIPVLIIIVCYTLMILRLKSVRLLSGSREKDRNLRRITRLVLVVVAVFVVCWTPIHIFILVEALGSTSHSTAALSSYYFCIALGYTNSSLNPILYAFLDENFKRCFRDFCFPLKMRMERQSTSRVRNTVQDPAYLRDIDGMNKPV

| SMILES | A2 radioligand binding inhibition (Human κ-Opioid (KOP)) | A6 radioligand binding inhibition [1] | A3 radioligand binding inhibition (Human Melanocortin (MC3)) | A5 radioligand binding inhibition (Human melanocortin (MC5)) | A8 radioligand binding inhibition (Human neurokinin (NK1)) | A7 radioligand binding inhibition (Human μ-opioid (MOP)) | A9 radioligand binding inhibition [2] | A1 radioligand binding inhibition (Human δ-opioid (DOP)) | A4 radioligand binding inhibition (Human Melanocortin (MC4)) | A11 radioligand binding inhibition (Mouse urotensin (mUR2)) | A10 radioligand binding inhibition (Human opioid (ORL1)) | A2: inhibition of radioligand binding, human κ-opioid (KOP) (Human κ-Opioid (KOP)) | A6: inhibition of radioligand binding, human melanin-concentrating hormone (MCH1) [1] | A3: inhibition of radioligand binding, human melanocortin (MC3) (Human Melanocortin (MC3)) | A5: inhibition of radioligand binding, human melanocortin (MC5) (Human melanocortin (MC5)) | A9: inhibition of radioligand binding, human neuropeptide Y (NPY-Y1) [2] | A1: inhibition of radioligand binding, human δ-opioid (DOP) (Human δ-opioid (DOP)) | A11: inhibition of radioligand binding, mouse urotensin (mUR2) (Mouse urotensin (mUR2)) | also measured |
| --- | --- | --- | --- | --- | --- | --- | --- | --- | --- | --- | --- | --- | --- | --- | --- | --- | --- | --- | --- |
| CO[C@H]1[C@H](O)[C@@H](COCc2ccc(-c3ccccc3)cc2)OC(OCc2ccccc2)[C@@H]1NC(=O)CNC(=N)N (stereo partly shown) [compound 82] | − (“−” indicates less than 50% inhibition at 10 μM) | − (“−” indicates less than 50% inhibition at 10 μM) | − (“−” indicates less than 50% inhibition at 10 μM) | − (“−” indicates less than 50% inhibition at 10 μM) | + (“+” indicates greater than 50% inhibition at 10 μM) | − (“−” indicates less than 50% inhibition at 10 μM) | − (“−” indicates less than 50% inhibition at 10 μM) | − (“−” indicates less than 50% inhibition at 10 μM) | + (“+” indicates greater than 50% inhibition at 10 μM) | − (“−” indicates less than 50% inhibition at 10 μM) | − (“−” indicates less than 50% inhibition at 10 μM) |  |  |  |  |  |  |  |  |
| CO[C@H]1[C@H](O)[C@@H](COCc2ccc(-c3ccccc3)cc2)OC(OCc2ccc(-c3ccccc3)cc2)[C@@H]1NC(=O)CCCNC(=N)N (stereo partly shown) [compound 54] | − (“−” indicates less than 50% inhibition at 10 μM) | + (“+” indicates greater than 50% inhibition at 10 μM) | + (“+” indicates greater than 50% inhibition at 10 μM) | + (“+” indicates greater than 50% inhibition at 10 μM) | + (“+” indicates greater than 50% inhibition at 10 μM) | + (“+” indicates greater than 50% inhibition at 10 μM) | − (“−” indicates less than 50% inhibition at 10 μM) | − (“−” indicates less than 50% inhibition at 10 μM) | + (“+” indicates greater than 50% inhibition at 10 μM) | − (“−” indicates less than 50% inhibition at 10 μM) | + (“+” indicates greater than 50% inhibition at 10 μM) |  |  |  |  |  |  |  |  |
| COC[C@H]1OC(OCc2ccc(-c3ccccc3)cc2)[C@H](NC(=O)CCCNC(=N)N)[C@@H](OCc2ccc(Cl)cc2)[C@@H]1O (stereo partly shown) [compound 13] | − (“−” indicates less than 50% inhibition at 10 μM) | + (“+” indicates greater than 50% inhibition at 10 μM) | − (“−” indicates less than 50% inhibition at 10 μM) | + (“+” indicates greater than 50% inhibition at 10 μM) | + (“+” indicates greater than 50% inhibition at 10 μM) | + (“+” indicates greater than 50% inhibition at 10 μM) | − (“−” indicates less than 50% inhibition at 10 μM) | − (“−” indicates less than 50% inhibition at 10 μM) | − (“−” indicates less than 50% inhibition at 10 μM) | − (“−” indicates less than 50% inhibition at 10 μM) | − (“−” indicates less than 50% inhibition at 10 μM) |  |  |  |  |  |  |  |  |
| NCCC(=O)NC1C(OCc2ccc(Cl)cc2)OC(COCc2ccc3ccccc3c2)C(O)C1OCc1ccccc1 (single isomer, unassigned) [compound 483] |  |  |  |  |  |  |  |  |  |  |  | − (“−” indicates less than 50% inhibition at 10 μM) | − (“−” indicates less than 50% inhibition at 10 μM) | − (“−” indicates less than 50% inhibition at 10 μM) | + (“+” indicates greater than 50% inhibition at 10 μM) | − (“−” indicates less than 50% inhibition at 10 μM) | − (“−” indicates less than 50% inhibition at 10 μM) | − (“−” indicates less than 50% inhibition at 10 μM) | A8: inhibition of radioligand binding, human neurokinin (NK1) (Human neurokinin (NK1)): + (“+” indicates greater than 50% inhibition at 10 μM); A7: inhibition of radioligand binding, human μ-opioid (MOP) (Human μ-opioid (MOP)): − (“−” indicates less than 50% inhibition at 10 μM); A4: inhibition of radioligand binding, human melanocortin (MC4) (Human Melanocortin (MC4)): − (“−” indicates less than 50% inhibition at 10 μM); A10: inhibition of radioligand binding, human opioid (ORL1) (Human opioid (ORL1)): − (“−” indicates less than 50% inhibition at 10 μM) |
| NCCC(=O)NC1C(OCc2ccc(Cl)cc2)OC(COCc2ccc(Cl)cc2)C(O)C1OCc1ccccc1 (single isomer, unassigned) [compound 487] |  |  |  |  |  |  |  |  |  |  |  | − (“−” indicates less than 50% inhibition at 10 μM) | − (“−” indicates less than 50% inhibition at 10 μM) | − (“−” indicates less than 50% inhibition at 10 μM) | + (“+” indicates greater than 50% inhibition at 10 μM) | − (“−” indicates less than 50% inhibition at 10 μM) | − (“−” indicates less than 50% inhibition at 10 μM) | − (“−” indicates less than 50% inhibition at 10 μM) | A8: inhibition of radioligand binding, human neurokinin (NK1) (Human neurokinin (NK1); 10 µM): − (“−” indicates less than 50% inhibition at 10 μM); A7: inhibition of radioligand binding, human μ-opioid (MOP) (Human μ-opioid (MOP); 10 µM): + (“+” indicates greater than 50% inhibition at 10 μM); A4: inhibition of radioligand binding, human melanocortin (MC4) (Human Melanocortin (MC4); 10 µM): − (“−” indicates less than 50% inhibition at 10 μM); A10: inhibition of radioligand binding, human opioid (ORL1) (Human opioid (ORL1); 10 µM): − (“−” indicates less than 50% inhibition at 10 μM) |
